The values below come from publication PMC4631641 (The Journal of nutritional biochemistry, 2015).

The target of this test is T1, holocarboxylase synthetase (HLCS) (Homo sapiens, UniProt P50747).
T1 sequence (P50747 1-726): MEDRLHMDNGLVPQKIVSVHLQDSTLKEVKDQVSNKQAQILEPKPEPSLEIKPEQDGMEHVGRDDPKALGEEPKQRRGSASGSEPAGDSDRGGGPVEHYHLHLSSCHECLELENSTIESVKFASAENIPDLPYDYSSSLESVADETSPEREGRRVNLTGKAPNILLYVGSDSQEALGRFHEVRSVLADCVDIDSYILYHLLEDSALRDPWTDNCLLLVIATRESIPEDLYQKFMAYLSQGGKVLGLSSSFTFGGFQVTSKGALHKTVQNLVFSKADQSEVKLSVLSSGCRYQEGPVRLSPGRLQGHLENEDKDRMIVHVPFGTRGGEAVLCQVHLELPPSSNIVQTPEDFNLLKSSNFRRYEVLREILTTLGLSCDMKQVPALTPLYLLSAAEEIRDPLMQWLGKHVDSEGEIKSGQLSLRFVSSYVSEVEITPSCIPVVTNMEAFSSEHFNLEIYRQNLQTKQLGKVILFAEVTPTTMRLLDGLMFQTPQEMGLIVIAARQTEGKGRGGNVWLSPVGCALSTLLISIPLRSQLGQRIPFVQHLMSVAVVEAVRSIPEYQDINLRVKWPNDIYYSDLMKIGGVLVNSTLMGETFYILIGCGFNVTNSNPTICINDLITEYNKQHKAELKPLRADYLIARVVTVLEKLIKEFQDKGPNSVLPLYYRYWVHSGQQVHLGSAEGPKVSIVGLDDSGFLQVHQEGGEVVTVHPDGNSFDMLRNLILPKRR
The test is described as follows: gel-based p67 biotinylation assay with purified rHLCS, dose-response. The format is biochemical.
In turn, `OC[C@H]1O[C@@H](Oc2cc(O)cc(/C=C/c3ccc(O)cc3)c2)[C@H](O)[C@@H](O)[C@@H]1O` [Piceid] gave an IC50 of 21.3 ± 0.014 µM. In turn, `Oc1ccc(/C=C/c2cc(O)cc(O)c2)cc1` [Resveratrol] displayed a half-maximal inhibitory concentration (IC50) of 3.7 ± 0.0085 µM. Regarding `Oc1cc(O)cc(/C=C/c2ccc(O)c(O)c2)c1` [Piceatannol], the half-inhibitory concentration (IC50) was found to be 0.28 µM.
